# Data reported in patent US10358453B2, “Antiviral compounds” (priority 2015, dated 2019).
# Read-outs that look alike come from different tables or passages of the source.
# How the values were obtained:
# recombinant RSV complex = recombinant RSV complex (Human respiratory syncytial virus A, UniProt P28887); test: RSV polymerase inhibition assay; type: biochemical; conditions: 10 nM recombinant RSV complex, 2 h at 30° C.; Table E = <1 μM, Table F = <50 μM; read-out: IC50
# Method in brief: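 Inhibitor titrations run for 2 h at 30° C against 10 nM recombinant RSV complex, using RNA oligonucleotide template and radiolabelled nucleotides in pH7.5 Tris-HCl, 6 mM MgCl2. After EDTA quench, scintillation counting of labelled RNA; sigmoidal fit gave the 50% rate-reduction concentration.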
# [1] = tested on: RSV subgenomic replicon 395 HeLa and APC126; test: RSV subgenomic replicon assay (Renilla luciferase); type: cell-based; conditions: human respiratory syncytial virus; RSV replicon cells (395 HeLa 7 days or APC126 3 days); Table G = less than 1 μM, Table H = equal to or higher than 1 μM and less than 50 μM
# Method in brief: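 Replicon cells (RSV with SH, G, F replaced by blasticidin resistance; 395 HeLa or BHK-derived APC126) exposed to 9-point 1:3 compound dilutions in 1% DMSO for 7 days (395 HeLa) or 3 days (APC126) at 37 °C. Renilla luciferase luminescence read; EC50 is concentration cutting signal 50% versus untreated cells.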
# [2] = tested on: Respiratory Syncytial Virus (RSV) long strain; test: RSV antiviral assay (CPE reduction, CCK-8 readout); type: cell-based; conditions: human respiratory syncytial virus
# Procedure: CPE reduction assays are performed as described by Sidwell and Huffman et al., Appl. Microbiol. […] Compounds are added into 384-well cell plates by Labcyte POD 810 Plate Assembler system. Each of the test compounds is provided to duplicate wells of a 384-well cell plate at final concentrations starting from 100 μM or 1 μM using 1/3 stepwise dilutions for 9 points. Quick-thaw Respiratory Syncytial Virus (RSV) long strain (ATCC#VR-26) stock in a 37° C. water bath. Place on ice until ready to use. Viruses are diluted to the concentration of 100 TCID50/30 μL with medium and 30 μl diluted RSV are added into related wells of 384-well cell plates. For each plate, sixteen wells are set aside as uninfected, untreated cell controls (CC), and nine wells per test plate receive virus only as a control for virus replication (VC). The final DMSO concentration of all wells is 1%. Place the plates at 37° C., 5% CO2 for 5 days.
# After 5 days incubation, observe the CPE of cells in all wells. […] Six μl of cell counting kit-8 reagent (CCK-8, Dojindo Molecular Technologies Inc., CK04-20) are added to each well, which allows colorimetric assays to determine the number of viable cells through the dehydrogenase activity detection. After 3-4 hour incubation, the absorbance of each well is measured with a spectrophotometric plate reader at 450 nm wavelength, using a 630 nm filter as background according to manufacturer's instruction.
# [3] = Cytotoxicity determination (CCK-8, without addition of virus); type: cell-based; conditions: human, HEp-2 cells (uninfected), no virus, Table C = greater than 100 μM, Table D = equal to or less than 100 μM and greater than 10 μM
# Method in brief: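 HEp-2 cells, no virus, exposed to compound from 100 μM in ½ serial dilutions (7 points, duplicate, 1% DMSO) for 5 days at 37° C, 5% CO2. Viability by CCK-8 (3-4 h) optical density; CC50 calculated.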
# [4] = 120 h, HEp-2 cells, RSV long strain, 5 days, Table A = less than 1 μM, Table B = equal to or higher than 1 μM and less than 50 μM, read-out: EC50
# Sequence of recombinant RSV complex (P28887 whole entry): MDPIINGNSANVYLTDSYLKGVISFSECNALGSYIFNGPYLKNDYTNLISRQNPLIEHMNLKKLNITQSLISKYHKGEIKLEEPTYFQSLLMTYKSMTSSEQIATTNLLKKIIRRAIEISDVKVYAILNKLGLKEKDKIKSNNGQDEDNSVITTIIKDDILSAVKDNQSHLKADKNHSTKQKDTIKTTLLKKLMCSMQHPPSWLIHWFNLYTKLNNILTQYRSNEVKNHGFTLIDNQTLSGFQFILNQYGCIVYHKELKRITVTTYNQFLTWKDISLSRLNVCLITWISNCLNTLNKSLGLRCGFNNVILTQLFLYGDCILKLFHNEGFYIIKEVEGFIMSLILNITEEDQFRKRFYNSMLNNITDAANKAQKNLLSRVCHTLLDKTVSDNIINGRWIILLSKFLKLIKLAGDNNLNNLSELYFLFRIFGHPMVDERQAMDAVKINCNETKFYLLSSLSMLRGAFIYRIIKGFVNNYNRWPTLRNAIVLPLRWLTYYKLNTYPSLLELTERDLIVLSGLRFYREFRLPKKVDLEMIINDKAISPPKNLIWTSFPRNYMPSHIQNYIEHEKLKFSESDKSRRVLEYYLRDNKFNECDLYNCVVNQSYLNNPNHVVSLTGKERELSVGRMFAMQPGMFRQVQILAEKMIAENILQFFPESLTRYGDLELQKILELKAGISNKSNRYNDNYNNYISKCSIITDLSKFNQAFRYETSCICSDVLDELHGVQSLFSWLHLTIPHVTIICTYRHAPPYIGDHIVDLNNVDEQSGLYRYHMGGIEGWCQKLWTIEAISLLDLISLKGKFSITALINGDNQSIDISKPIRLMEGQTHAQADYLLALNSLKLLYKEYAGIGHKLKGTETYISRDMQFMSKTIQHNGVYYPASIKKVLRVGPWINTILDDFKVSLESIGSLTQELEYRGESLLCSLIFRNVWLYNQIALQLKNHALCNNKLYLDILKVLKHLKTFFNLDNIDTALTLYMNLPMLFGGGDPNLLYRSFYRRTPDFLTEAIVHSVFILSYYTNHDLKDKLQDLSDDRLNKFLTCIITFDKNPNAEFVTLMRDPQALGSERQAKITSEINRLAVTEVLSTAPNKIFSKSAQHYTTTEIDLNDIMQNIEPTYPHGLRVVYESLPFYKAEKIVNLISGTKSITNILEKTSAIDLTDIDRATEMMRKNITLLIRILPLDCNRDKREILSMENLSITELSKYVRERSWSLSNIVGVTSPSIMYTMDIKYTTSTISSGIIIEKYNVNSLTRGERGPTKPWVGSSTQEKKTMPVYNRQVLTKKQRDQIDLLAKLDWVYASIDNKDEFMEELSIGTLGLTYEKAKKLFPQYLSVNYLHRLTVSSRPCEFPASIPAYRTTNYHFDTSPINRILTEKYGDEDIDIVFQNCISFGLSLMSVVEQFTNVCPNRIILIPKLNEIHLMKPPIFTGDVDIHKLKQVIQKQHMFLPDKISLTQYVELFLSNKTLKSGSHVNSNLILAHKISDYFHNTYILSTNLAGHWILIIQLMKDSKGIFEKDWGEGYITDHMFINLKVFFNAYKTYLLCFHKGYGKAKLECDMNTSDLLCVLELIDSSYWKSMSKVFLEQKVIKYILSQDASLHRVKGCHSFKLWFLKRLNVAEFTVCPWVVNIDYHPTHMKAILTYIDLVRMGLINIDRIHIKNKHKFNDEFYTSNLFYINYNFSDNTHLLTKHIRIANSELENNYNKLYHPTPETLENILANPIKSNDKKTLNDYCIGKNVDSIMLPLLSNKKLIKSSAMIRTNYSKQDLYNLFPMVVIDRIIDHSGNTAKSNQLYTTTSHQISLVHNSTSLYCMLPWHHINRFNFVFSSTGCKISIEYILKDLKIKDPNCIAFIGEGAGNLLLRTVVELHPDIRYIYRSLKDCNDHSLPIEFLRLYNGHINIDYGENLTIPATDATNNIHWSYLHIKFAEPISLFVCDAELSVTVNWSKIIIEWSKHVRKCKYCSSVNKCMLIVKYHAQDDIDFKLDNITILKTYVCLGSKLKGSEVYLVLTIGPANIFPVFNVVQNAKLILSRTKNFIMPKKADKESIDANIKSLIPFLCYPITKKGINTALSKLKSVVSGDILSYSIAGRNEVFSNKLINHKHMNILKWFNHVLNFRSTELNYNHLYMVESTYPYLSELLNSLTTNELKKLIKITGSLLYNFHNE
# Sequence of recombinant RSV complex (P03421 whole entry, further chain): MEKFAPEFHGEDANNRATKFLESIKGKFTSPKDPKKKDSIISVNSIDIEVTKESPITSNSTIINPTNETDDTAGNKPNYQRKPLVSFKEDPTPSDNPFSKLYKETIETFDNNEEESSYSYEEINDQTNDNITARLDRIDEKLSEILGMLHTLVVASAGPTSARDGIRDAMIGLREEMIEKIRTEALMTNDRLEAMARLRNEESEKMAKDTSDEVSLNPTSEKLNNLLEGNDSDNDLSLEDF
Compound,IC50 (recombinant RSV complex) [µM],EC50 [1] [µM],"EC50 [2, 4] [µM]",CC50 at 5 days [3] [µM],"EC50 ([2]; HEp-2, 120 h) [µM]"
"COc1cc(C(=O)NCC(O)(c2cc3c(c(-c4ccc(F)cc4)n2)OCC3(N)CO)C(F)(F)F)cc2cccnc12 (single isomer, unassigned) [Compound 2]",< 1,< 1,< 1,,
COc1cc(C(=O)NCC(O)(c2cc3c(c(-c4ccc(F)cc4)n2)OCC3(N)CO)C(F)(F)F)cc2cccnc12 (centres unmarked) [Compound 1],< 1,< 1,,10 to 100,< 1
COc1cc(C(=O)NCC(O)(c2cc3c(c(-c4ccc(F)cc4)n2)OCC3(C)N)C(F)(F)F)cc2c1NC(=O)C2=O (centres unmarked) [Compound 10],< 50,1 to 50,1 to 50,10 to 100,
CC1(N)COc2c1cc(C(O)(CNC(=O)c1ccc(OC3CC3)c(OCCO)c1)C(F)(F)F)nc2-c1ccc(F)cc1 (centres unmarked) [Compound 12],< 1,< 1,< 1,,
COc1cc(C(=O)NCC(O)(c2cc3c(c(-c4ccc(F)cc4)n2)OCC3(N)CO)C(F)(F)F)cc2cc[nH]c12 (centres unmarked) [Compound 102],< 1,1 to 50,,10 to 100,
COc1cc(C(=O)NCC(O)(c2cc3c(c(-c4ccc(F)cc4)n2)OCCC3(C)N)C(F)(F)F)ccc1OC[C@@H](C)O (some centres unmarked) [Compound 103],< 1,< 1,,10 to 100,
COc1cc(C(=O)NCC(O)(c2cc3c(c(-c4ccc(F)cc4)n2)OCC32CCN2)C(F)(F)F)ccc1OC[C@@H](C)O (some centres unmarked) [Compound 108],< 1,1 to 50,,10 to 100,
COc1ccc(C(=O)NCC(O)(c2cc3c(c(-c4ccc(F)cc4)n2)OCC3(C)N)C(F)(F)F)nc1OC (centres unmarked) [Compound 112],< 1,< 1,,10 to 100,
C[C@@H](O)COc1ccc(C(=O)NC[C@@](O)(c2cc3c(c(-c4ccc(F)cc4)n2)OC[C@@]3(C)N)C(F)(F)F)cc1Cl [Compound 113],< 1,< 1,,10 to 100,
Cn1nc(C(F)(F)F)cc1C(=O)NCC(O)(c1cc2c(c(-c3ccc(F)cc3)n1)OCC2(C)N)C(F)(F)F (centres unmarked) [Compound 114],< 1,< 1,,10 to 100,
COc1cc(C(=O)NCC(O)(c2cc(C3(C)CCNCC3)cc(-c3ccc(F)cc3)n2)C(F)(F)F)ccc1OCCO (centres unmarked) [Compound 117],< 50,1 to 50,,10 to 100,
COc1cc(C(=O)NCC(O)(c2cc(C3(C)COCCN3)cc(-c3ccc(F)cc3)n2)C(F)(F)F)ccc1OCCO (centres unmarked) [Compound 119],< 1,< 1,,> 100,
COc1cc(C(=O)NCC(O)(c2nc(-c3ccc(F)cc3)cc3c2OC(C)(N)C3)C(F)(F)F)ccc1OC[C@@H](C)O (some centres unmarked) [Compound 120],< 1,< 1,,10 to 100,
COc1cc(C(=O)NC[C@@](O)(c2cc3c(c(-c4ccc(F)cc4)n2)OC[C@@]3(C)N)C(F)(F)F)ccc1OCC(C)=O [Compound 121],< 1,< 1,,10 to 100,
COc1cc(C(=O)NC[C@@](O)(c2cc3c(c(-c4ccc(F)cc4)n2)OC[C@@]3(C)N)C(F)(F)F)cc(F)c1OC[C@@H](C)O [Compound 122],< 1,< 1,,10 to 100,
COc1cc(C(=O)NC[C@@](O)(c2cc3c(c(-c4ccc(F)cc4)n2)OC[C@@]3(C)NO)C(F)(F)F)ccc1OC[C@@H](C)O [Compound 123],< 1,< 1,,10 to 100,
C[C@@]1(N)COc2c1cc([C@](O)(CNC(=O)c1cc(OCCO)c3[nH]ccc3c1)C(F)(F)F)nc2-c1ccc(F)cc1 [Compound 124],< 1,< 1,,10 to 100,
COc1cc(C(=O)NCC(O)(c2cc3c(c(-c4ccc(F)cc4)n2)OCC3(C)N)C(F)(F)F)ccc1OC(C)(C)CO (centres unmarked) [Compound 125],< 1,< 1,,10 to 100,
COc1cc(C(=O)NC[C@@](O)(c2cc3c(c(-c4ccc(F)cc4)n2)NC[C@@]3(C)N)C(F)(F)F)ccc1OC1CC1 [Compound 127],< 1,< 1,,10 to 100,
COc1cc(C(=O)NC[C@@](O)(c2cc3c(c(-c4ccc(F)cc4)n2)OC[C@@]3(C)NC(C)=N)C(F)(F)F)ccc1OC[C@@H](C)O [Compound 130],< 1,< 1,,> 100,
COc1cc(C(=O)NC[C@@](O)(c2cc3c(c(-c4ccc(F)cc4)n2)OC[C@@]3(C)NC2COC2)C(F)(F)F)ccc1OC[C@@H](C)O [Compound 131],< 1,< 1,,10 to 100,
COc1cc(C(=O)NC[C@@](O)(c2cc3c(c(-c4ccc(F)cc4)n2)OC[C@@]3(C)NC(N)=O)C(F)(F)F)ccc1OC[C@@H](C)O [Compound 132],< 1,< 1,,10 to 100,
COc1cc(C(=O)NCC(O)(c2cc(N3CCNCC3)cc(-c3ccc(F)cc3)n2)C(F)(F)F)ccc1OCCO (centres unmarked) [Compound 138],< 1,1 to 50,,10 to 100,
